Results from paper PMC7168933, “Design, Synthesis and Biochemical Evaluation of Novel Ethanoanthracenes and Related Compounds to Target Burkitt’s Lymphoma” (Pharmaceuticals, 2020).

Experiments:
[1] = tested on: MUTU-1 Burkitt lymphoma cell line (EBV+); conditions: 24 h
[2] = tested on: MUTU-1 Burkitt lymphoma cell line (EBV+); assay: cells; conditions: Mutu-1, 24 h; for viability at 1 µM: read-out: MUTU-1 Cell Viability % 1 μM, 1 μM, 24 h; for viability at 10 µM: read-out: MUTU-1 Cell Viability % 10 μM, 10 μM, 24 h; for IC50: read-out: IC50 MUTU-I 24 h
[3] = tested on: DG-75 Burkitt lymphoma cell line (EBV−, chemoresistant); assay: cells; conditions: Homo sapiens, DG-75, 48 h; for viability at 1 µM: read-out: DG-75 Cell Viability % 1 μM, 1 μM, 48 h; for viability at 10 µM: read-out: DG-75 Cell Viability % 10 μM, 10 μM, 48 h
[4] = tested on: MUTU-1 Burkitt's lymphoma cell line; assay: FITC Annexin V/PI FACS analysis of apoptosis in MUTU-I cells; format: cell-based; conditions: 0.5 µM, 24 h
Description: (§1) BL cells DG-75 and MUTU-1 (750,000) were treated with the specified concentration of the selected compound and incubated for 24 h (MUTU-1) or 48 h (DG-75) with taxol as the positive control. Samples were harvested by centrifugation and the pellets were rinsed with 0.5 mL of Ca^2+ Annexin V binding buffer (0.1 M HEPES, pH 7.4; 1.4 M NaCl; 25 mM CaCl2) each and pelleted again by centrifugation. Supernatants were decanted and the pellets were suspended again in 50 µL FITC Annexin V (diluted 1:33 in Ca^2+ Annexin V binding buffer), the samples were then placed on ice and incubated for 10 min in the dark. After the incubation period 0.5 mL of Ca^2+ Annexin V binding buffer was added and samples were pelleted by centrifugation. The supernatant was decanted and the pellet was suspended in PI solution (500 µL; 0.5 µg/mL). After 1 h, the samples were recorded using a CyAn ADP flow cytometer (Beckman Coulter Inc., Brea, CA, USA). 10,000 cells were analysed with the Flowjo software package. Taxol was used as a positive control for cell death.

[5] = tested on: DG-75 Burkitt's lymphoma cell line; assay: FITC Annexin V/PI FACS analysis of apoptosis in DG-75 cells; format: cell-based; conditions: 10 µM, 48 h
Description: as §1

Compound	melting point [°C]	cell viability in MUTU-I cell line (1 and 10 μM together or concentration not stated) [1]	viability at 1 µM [2] [%]	viability at 10 µM [2] [%]	viability at 1 µM [3] [%]	viability at 10 µM [3] [%]	MUTU-1 Cell Viability % 1 μM [1] [%]	IC50 [2] [nM]	apoptosis in MUTU-I at 0.5 µM [4] [%]	apoptosis in DG-75 at 10 µM [5] [%]	IC50 ([3]; read-out: IC50 DG-75 48 h) [nM]	MUTU-1 Cell Viability % 10 μM ([1]; 10 μM) [%]
O=C1OC(=O)C2C1C1c3ccccc3C2(/C=C/[N+](=O)[O-])c2ccccc21 (stereo not drawn) [Compound 13a, (E)-9-(2-Nitrovinyl)-9,10-dihydro-9,10-[3,4]furanoanthracene-12,14-dione]	244 to 245	7–24%	24.4	12.5	78.5	62.2	–	–	–	–	–	–
CN1C(=O)C2C3c4ccccc4C(/C=C/[N+](=O)[O-])(c4ccccc43)C2C1=O (stereo not drawn) [Compound 13m, (E)-13-Methyl-9-(2-nitrovinyl)-9,10-dihydro-9,10-[3,4]epipyrroloanthracene-12,14-dione]	267 to 268	–	–	7.4	38.1	0.93	0	320	–	–	–	–
O=C1C2C3c4ccccc4C(/C=C/[N+](=O)[O-])(c4ccccc43)C2C(=O)N1CO (stereo not drawn) [Compound 13n, (E)-13-(Hydroxymethyl)-9-(2-nitrovinyl)-9,10-dihydro-9,10-[3,4]epipyrroloanthracene-12,14-dione]	230 to 232	–	–	1.8	74.6	20.4	0	–	–	–	–	–
N#CC1CC2c3ccccc3C1(/C=C/[N+](=O)[O-])c1ccccc12 (stereo not drawn) [Compound 19a, (E)-10-(2-Nitrovinyl)-9,10-dihydro-9,10-ethanoanthracene-11-carbonitrile]	–	–	9	0	20.6	0	–	380	> 90	87	690	–
CCOC(=O)C1C2c3ccccc3C(/C=C/[N+](=O)[O-])(c3ccccc32)C1C(=O)OCC (stereo not drawn) [Compound 19f, Diethyl (E)-9-(2-nitrovinyl)-9,10-dihydro-9,10-ethanoanthracene-11,12-dicarboxylate]	151 to 152	–	13.6	13.8	13.9	13.8	–	550	–	–	–	–
O=[N+]([O-])/C=C/C12c3ccccc3C(c3ccccc31)c1ccccc12 [Compound 20a, (E)-9-(2-nitrovinyl)-9,10-dihydro-9,10-[1,2]benzenoanthracene]	–	< 6%	6	1.3	90.2	0.091	–	–	–	–	–	–
CC(=CC12c3ccccc3C(c3ccccc31)c1ccccc12)[N+](=O)[O-] [Compound 20b, (E)-9-(2-Nitroprop-1-en-1-yl)-9,10-dihydro-9,10-[1,2]benzenoanthracene]	226 to 228	–	95.2	102	86.4	100	–	–	–	–	–	–
CCC(=CC12c3ccccc3C(c3ccccc31)c1ccccc12)[N+](=O)[O-] [Compound 20c, (E)-9-(2-Nitrobut-1-en-1-yl)-9,10-dihydro-9,10-[1,2]benzenoanthracene]	210 to 211	–	106	102	95.1	84.8	–	–	–	–	–	–
O=[N+]([O-])C=CC12c3ccccc3C(Cl)(c3ccccc31)c1ccccc12 [Compound 20d, (E)-9-Chloro-10-(2-nitrovinyl)-9,10-dihydro-9,10-[1,2]benzenoanthracene]	259 to 261	< 6%	0.95	0.34	46	0	–	280	–	–	–	–
O=[N+]([O-])CCC12c3ccccc3C(c3ccccc31)c1ccccc12 [Compound 20e, 9-(2-Nitroethyl)-9,10-dihydro-9,10-[1,2]benzenoanthracene]	185 to 187	–	98.9	111	97.6	97.2	–	–	–	–	–	–
O=CC12c3ccccc3C(c3ccccc31)c1ccccc12 [Compound 20f]	–	–	97.9	< 5	72.9	81.7	–	–	–	–	–	5.4
OCC12c3ccccc3C(c3ccccc31)c1ccccc12 [Compound 20g]	–	inactive	101	103	97	68.7	–	–	–	–	–	–
O=C1NC(=O)C2C3c4ccccc4C(c4ccccc43)C12 (stereo not drawn) [Compound 21b]	299 to 300	–	104	92.8	82	74.5	–	–	–	–	–	–
O=C1C2C3c4ccccc4C(c4ccccc43)C2C(=O)N1c1ccccc1 (stereo not drawn) [Compound 21c]	227 to 229	–	93	91.2	85.7	71.3	–	–	–	–	–	–
O=C1NC(=O)C2C1C1c3ccccc3C2(O)c2ccccc21 (stereo not drawn) [Compound 21k, 9-Hydroxy-9,10-dihydro-9,10-[3,4]epipyrroloanthracene-12,14-dione]	253 to 255	–	104	100	65.9	80.9	–	–	–	–	–	–
N#C/C=C/C12c3ccccc3C(c3ccccc31)C1C(=O)OC(=O)C12 (stereo not drawn) [Compound 23a, (E)-3-(12,14-Dioxo-9,10-[3,4]furanoanthracen-9(10H)-yl)acrylonitrile]	215 to 219	–	82.7	82.6	89	75.8	–	–	–	–	–	–
N#C/C=C/C12c3ccccc3C(c3ccccc31)C1C(=O)N(c3ccccc3)C(=O)C12 (stereo not drawn) [Compound 23c, (E)-3-(12,14-Dioxo-13-phenyl-9,10-[3,4]epipyrroloanthracen-9(10H)-yl)acrylonitrile]	274 to 281	–	90.7	74.1	94.4	89.1	–	–	–	–	–	–
N#CC(C#N)=CC12c3ccccc3C(c3ccccc31)C1C(=O)OC(=O)C12 (stereo not drawn) [Compound 23d, 2-((12,14-Dioxo-9,10-[3,4]furanoanthracen-9(10H)-yl)methylene)malononitrile]	196 to 198	–	99.8	82.7	103	95.7	–	–	–	–	–	–
N#CC(C#N)=CC12c3ccccc3C(c3ccccc31)C1C(=O)NC(=O)C12 (stereo not drawn) [Compound 23e, 2-((12,14-Dioxo-9,10-[3,4]epipyrroloanthracen-9(10H)-yl)methylene)malononitrile]	281 to 284	–	82.9	83.6	85.7	98.7	–	–	–	–	–	–
N#CC(C#N)=CC12c3ccccc3C(c3ccccc31)C1C(=O)N(c3ccccc3)C(=O)C12 (stereo not drawn) [Compound 23f, 2-((12,14-Dioxo-13-phenyl-9,10-[3,4]epipyrroloanthracen-9(10H)-yl)methylene)malononitrile]	255 to 258	–	78.9	71.8	82	81.6	–	–	–	–	–	–
N/N=C/C12c3ccccc3C(c3ccccc31)C1C(=O)NC(=O)C12 (stereo not drawn) [Compound 23g, (E)-9-(Hydrazonomethyl)-9,10-dihydro-9,10-[3,4]epipyrroloanthracene-12,14-dione]	245 to 247	–	95.2	101	78.1	55	–	–	–	–	–	–
O=C1NC(=O)C2C1C1c3ccccc3C2(/C=N/O)c2ccccc21 (stereo not drawn) [Compound 23j, (E)-12,14-Dioxo-9,10-[3,4]epipyrroloanthracene-9(10H)-carbaldehyde oxime]	272 to 273	–	92.8	87.6	69.1	63.9	–	–	–	–	–	–
O=C1C2C3c4ccccc4C(/C=N/O)(c4ccccc43)C2C(=O)N1c1ccccc1 (stereo not drawn) [Compound 23k, (E)-12,14-Dioxo-13-phenyl-9,10-[3,4]epipyrroloanthracene-9(10H)-carbaldehyde oxime]	238 to 242	–	96.9	83.9	81.7	74.1	–	–	–	–	–	–
